Source: EP0342558A2, “2-amino-4,5-methyleneadipic acid compounds for treatment of CNS disorders” (priority 1988, dated 1989)
Marks after values point to notes of the source that are not given here.

Assays:
QUIS = assay: Glutamate binding assay, [³H]AMPA (QUIS) binding to synaptic plasma membranes; details: 10nM [³H]AMPA, 100 mM KSCN, SPM, 0-4°C, 10 minutes
Description: (§1) The purpose of this assay is to determine the binding affinity of a compound of Formula I for the three glutamic acid receptor sub-types. (NMDA, QUIS, Kainate). It is expected that a compound interacting with one of these sub-type receptors will mimic or antagonize the effect of the endogenous ligand and thereby have a memory enhancing effect or have a neuroprotective and/or anti-epileptic effects. This procedure was carried out as follows:
(§2) Synaptic plasma membranes (SPM) were prepared as previously described [Monahan, J.B. and Michel, J., "Identification and Characterization of an N-methyl-D-aspartate-specific L-[³H]glutamate Recognition Site in Synaptic Plasma Membranes, J. Neurochem., 48, 1699-1708 (1987)]. The SPM were stored at a concentration of 10-15 mg/ml in 0.32M sucrose, 0.5 mM EDTA, 1mM MgSO₄, 5 mM Tris/SO₄, pH 7.4, under liquid nitrogen. The identity and purity of the subcellular fractions were confirmed by both electron microscopy and marker enzymes. Protein concentrations were determined by using a modification of the method of Lowry [Ohnishi, S.T. and Barr, J.K., "A Simplified Method of Quantitating Proteins Using the Biuret and Phenol Reagents", Anal. Biochem., 86, 193-197 (1978)]. The SPM were treated identically for the [³H]AMPA (QUIS), [³H]kainate and NMDA-specific L-[³H]glumatate binding assays. The SPM were thawed at room temperature, diluted twenty-fold with 50mM Tris/-acetate, pH 7.4, incubated at 37°C for 30 minutes, and centrifuged at 100,000 g for 15 minutes. The dilution, incubation, and centrifugation was repeated a total of three times. The basic procedure for the receptor subclass binding assays was similar. This general method involved adding the radioligand (12.5 nM L-[³H]glutamate; 0.5 nM [³H]kainate or 10nM L-[³H]AMPA) to the appropriate concentration of the test compound and initiating the assay by the addition of ice cold SPM (0.2-0.45 mg). The binding assays were performed in 1.5 ml centrifuge tubes with the total volume adjusted to 1.0 ml. Additions of test compounds were made in 50 mM Tris/acetate, pH 7.4 and incubations were carried out at 0-4°C. The incubation time for the NMDA and the AMPA binding assays was 10 minutes and for the kainate binding assay 60 minutes. The AMPA binding assay contained 100 mM KSCN. […] The supernatant was aspirated and the pelleted membranes dissolved in Beckman Ready-Protein scintillation cocktail and the samples counted on a Beckman LS 5800 or 3801 liquid scintillation counter with automatic corrections for quenching and counting efficiency. […] Radioligand binding to the SPM was analyzed using Scatchard and Hill transformations and the Ki values of the compounds determined using logit-log transformations. […]

NMDA neurotoxicity = assay: In vitro chick retina assay, protection against NMDA; assay type: cell-based; details: for Antagonist activity vs NMDA: concentration required to completely prevent toxicity of NMDA (200 µM), 30 minutes at 37°C; for % protection vs NMDA: NMDA 200 µM
Source text: (§3) This assay is adapted from procedures described in literature sources [Olney, J.W., Price, M.T., Fuller, T.A., Labruyere, J., Samson, L., Carpenter, M., Mahan, K., "The Anti-Excitotoxic Effects of Certain Anesthetics, Analgesics and Sedative-Hypnotics", Neuroscience Letters, 68, 29-34, (1986)]. By an approach similar to that earlier described [Reif-Lehrer, L., Bergenthal, J. and Hanninen, L., "Effects of Monosodium Glutamate on Chick Embryo Retina in Culture", Invest. Ophthalmol., 14, 114-124, (1975)], 15-day-old chick embryos were decapitated and their eyes removed and cut into quadrants after excising the cornea and removing the lens, vitreous and iris. The retinal quadrants were then gently separated from the pigment epithelium and incubated for 30 minutes at 37°C in a standard balanced salt solution (BSS) to which test compounds, either excitatory amino acid agonists or potential antagonists or both, were added in various concentrations. As described elsewhere [Olney, J.W., Price, M.T., Samson, L. and Labruyere, J., "The Role of Specific Ions in Glutamate Neurotoxicity". Neurosci. Lett.. […] After incubation for 30 minutes, the retinal quadrants were fixed by immersion in phosphate-buffered solution containing 1.5% glutaraldehyde and 1% paraformaldehyde, then additionally fixed in 1% osmium tetroxide and embedded in araldite, allowing sections to be cut for either light or electron microscopy [Olney, J.W., "Glutamate-Induced Retinal Degeneration in Neonatal Mice. Electron Microscopy of the Acutely Evolving Lesion", J. Neuropathol. Exp. Neurol., 28, 455-474, (1969)]. […] Neurosci. […] For purposes of the present study, NMDA and KA were the agonists employed and numerous potential antagonists were tested at various concentrations for their ability to prevent NMDA or KA neurotoxicity. […] Internal controls on each experiment consisted of at least 6 specimens being incubated with agonist alone (NMDA 200 µM or KA 25 µM). […]

QA = assay: In vitro chick retina assay, protection against QA; assay type: cell-based; details: 30 minutes at 37°C; QA concentration not given
Kainate = assay: Glutamate binding assay, [³H]kainate binding to synaptic plasma membranes; details: 0.5 nM [³H]kainate, SPM, 0-4°C, 60 minutes
Description: as §1, §2

NMDA = assay: Glutamate binding assay, NMDA-specific L-[³H]glutamate binding to synaptic plasma membranes; details: 12.5 nM L-[³H]glutamate, SPM, 0-4°C, 10 minutes
Description: as §1, §2

KA neurotoxicity = assay: In vitro chick retina assay, protection against KA; assay type: cell-based; details: concentration required to completely prevent toxicity of KA (25 µM); 30 minutes at 37°C
Source text: as §3

[1] = system: rat brain synaptic membranes (SPM); assay: [³H]TCP modulation assay; assay type: binding
Description: The effect on [³H]TCP (1-[1-(2-thienyl)-cyclohexyl]piperidine) binding was measure in rat brain synaptic membranes (SPM) prepared as previously described (J.B. Monahan and J. Michel; J. Neurochem., 48, 1699-1708, (1987)). Prior to their use in the binding assay, frozen SPM were thawed, diluted twenty fold with 50 mM Tris/acetate, pH 7.4 containing 0.04% (v/v) Triton X-100, incubated for 30 min., at 37°C and centrifuged at 95,000 xspg for 15 min. The Triton X-100 treated SPM were washed with 5 mM Tris/HCl, pH 7.4 and centrifuged a total of six times. The compounds of the invention were incubated with SPM (0.2-0.4 mg protein) and 2 nM [³H]TCP in a total volume of 0.5 ml of 5 mM Tris/HCl buffer pH 7.4 at 25°C for 60 min. The samples were filtered through glass fiber filters (Schleicher & Schuell #32) which have been pretreated with 0.05% (v/v) polyethylenimine, washed with 2 ml of ice-cold 5 mM Tris/HCl buffer, and then counted on a Beckman LS 5800 liquid scintillation counter with automatic corrections for quenching and counting efficiency. Antagonist character was defined as the ability of the test compound to inhibit [³H]TCP binding in the presence of 1 µM L-glutamate, while agonist character is shown by stimulation of either basal [³H]TCP binding or the binding in the presence of 10 µM D-AP7, a specific competitive NMDA antagonist. Non specific binding was defined as the residual binding in the presence of 60 µM phencyclidine.

[2] = system: 15-day-old chick embryo retina; details: agonist alone, 30 minutes, pilot experiments
Source text: This assay is adapted from procedures described in literature sources [Olney, J.W., Price, M.T., Fuller, T.A., Labruyere, J., Samson, L., Carpenter, M., Mahan, K., "The Anti-Excitotoxic Effects of Certain Anesthetics, Analgesics and Sedative-Hypnotics", Neuroscience Letters, 68, 29-34, (1986)]. By an approach similar to that earlier described [Reif-Lehrer, L., Bergenthal, J. and Hanninen, L., "Effects of Monosodium Glutamate on Chick Embryo Retina in Culture", Invest. Ophthalmol., 14, 114-124, (1975)], 15-day-old chick embryos were decapitated and their eyes removed and cut into quadrants after excising the cornea and removing the lens, vitreous and iris. The retinal quadrants were then gently separated from the pigment epithelium and incubated for 30 minutes at 37°C in a standard balanced salt solution (BSS) to which test compounds, either excitatory amino acid agonists or potential antagonists or both, were added in various concentrations. As described elsewhere [Olney, J.W., Price, M.T., Samson, L. and Labruyere, J., "The Role of Specific Ions in Glutamate Neurotoxicity". Neurosci. Lett.. […]

[3] = system: 15-day-old chick embryo retina; details: 1 mM, incubated for 30 minutes in BSS, pilot studies; cited from earlier work
mungbean seedling growth = details: cited from earlier work

Compound	Ki (QUIS) [µM]	Antagonist activity vs NMDA (NMDA neurotoxicity) [µM]	Antagonist activity vs QA (QA) [µM]	Binding Ki KA (Kainate) [µM]	Ki (NMDA) [nM]	Antagonist activity vs KA (KA neurotoxicity) [µM]	other results
N[C@@H](CC1CC1C(=O)O)C(=O)O (stereo partly drawn) [trans-L-2-amino-4,5-methyleneadipic acid, Trans-L-2-amino-4,5-methyleneadipic acid]	> 300	>500	>500	37.0	2500	>500	
N[C@H](CC1CC1C(=O)O)C(=O)O (stereo partly drawn) [cis-D-2-amino-4,5-methyleneadipic acid, Cis-D-2-amino-4,5-methyleneadipic acid]	> 300	> 75	>500	13.0	1900	>500	maximal stimulation of [³H]TCP binding ([1]; compared with the full agonist glutamate): substantially less than that shown for the full agonist glutamate; [³H]TCP Bound ([1]; compound 100 µM, in presence of D-AP7 (10µM), control without compound 5016): 11453 DPM; [³H]TCP Bound ([1]; compound 100 µM, in presence of L-Glutamate (1µM), control without compound 15466): 12265 DPM; [³H]TCP Bound ([1]; compound 200 µM, in presence of D-AP7 (10µM), control without compound 5016): 11161 DPM; [³H]TCP Bound ([1]; compound 200 µM, in presence of L-Glutamate (1µM), control without compound 15466): 11880 DPM; [³H]TCP Bound ([1]; compound 400 µM, in presence of D-AP7 (10µM), control without compound 5016): 9345 DPM; [³H]TCP Bound ([1]; compound 400 µM, in presence of L-Glutamate (1µM), control without compound 15466): 9622 DPM; effect on quantity of [³H]TCP bound ([1]; in the presence of D-APH): agonist effect; effect on quantity of [³H]TCP specifically bound ([1]; in the presence of L-glutamic acid): antagonist effect; % protection vs NMDA (NMDA neurotoxicity; compound at 10 µM): 10(0%)*; % protection vs NMDA (NMDA neurotoxicity; compound at 25 µM): 25(33%)*; % protection vs NMDA (NMDA neurotoxicity; compound at 50 µM): 50(66%)*; % protection vs NMDA (NMDA neurotoxicity; compound at >75 µM): 100%
N[C@H](CC1CC1C(=O)O)C(=O)O (stereo partly drawn) [trans-D-2-amino-4,5-methyleneadipic acid, Trans-D-2-amino-4,5-methyleneadipic acid]	> 300	> 125	>500	25.0	2200	>500	% protection vs NMDA (NMDA neurotoxicity; compound at 50 µM): 50(0%)*; % protection vs NMDA (NMDA neurotoxicity; compound at 75 µM): 75(66%)*; % protection vs NMDA (NMDA neurotoxicity; compound at >125 µM): 100%
N[C@@H](CC1CC1C(=O)O)C(=O)O (stereo partly drawn) [cis-L-2-amino-4,5-methyleneadipic acid, Cis-L-2-amino-4,5-methyleneadipic acid]	> 300	>500	>500	23.0	14200	>500	
C=C(C)[C@H]1CN[C@H](C(=O)O)[C@H]1CC(=O)O [KA, Kainate]							lowest concentrations required to consistently obtain fully developed retinal lesions [2]: 25 µM
N[C@@H](CCC(=O)O)C(=O)O [Glu, Glutamate]							retinal lesion [3]: a fully developed lesion occurs
CN[C@H](CC(=O)O)C(=O)O [NMDA, N-methyl-D-aspartate]							lowest concentrations required to consistently obtain fully developed retinal lesions [2]: 200 µM
NC(C(=O)O)[C@@H]1C[C@@H]1C(=O)O (relative stereo) [cis-α-(carboxycyclopropyl)glycine]							inhibition of mungbean seedling growth (mungbean seedling growth): potent inhibitor
